Results: the supplement of paper PMC10307832

Key:
Assay in all cases: relative viability (nuclei count vs DMSO), 5 days (fraction); higher = more cells survive
[1] = compound: COc1cc(-c2nn([C@H]3CC[C@H](N4CCN(C(C)=O)CC4)CC3)c3ncnc(N)c23)ccc1NC(=O)c1cc2ccccc2n1C + COc1cccc2cc(-c3nc([C@H]4CC[C@H](C(=O)O)CC4)n4ncnc(N)c34)[nH]c12 [OSI-027] (partner 0.5 µM)
Outline: (§1)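 Nuclei were stained with Hoechst during a one-step fixation (final 0.05% Triton X-100, 1% formaldehyde, 1 ug/ml Hoechst) carried out 5 days after dosing, then counted on 4× images. The cells, lung cancer lines in 1536-well plates, had been dosed by pin tool the day after seeding with one drug alone or a fixed anchor-drug dose plus five library-drug doses (not always all listed) in √10 steps. Relative viability is the nuclei count in treated wells divided by that in vehicle wells, and each value is the median of duplicate plates.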

[2] = compound: COc1cc(-c2nn([C@H]3CC[C@H](N4CCN(C(C)=O)CC4)CC3)c3ncnc(N)c23)ccc1NC(=O)c1cc2ccccc2n1C + Nc1ncn([C@H]2C[C@H](O)[C@@H](CO)O2)c(=O)n1 [Decitabine] (partner 2 µM)
Outline: as §1

Midostaurin + Olaparib = compound: CO[C@@H]1[C@H](N(C)C(=O)c2ccccc2)C[C@H]2O[C@]1(C)n1c3ccccc3c3c4c(c5c6ccccc6n2c5c31)C(=O)NC4 [Midostaurin] + O=C(c1cc(Cc2n[nH]c(=O)c3ccccc23)ccc1F)N1CCN(C(=O)C2CC2)CC1 [Olaparib] (partner 8 µM)
Outline: as §1

[3] = compound: COc1cc(-c2nn([C@H]3CC[C@H](N4CCN(C(C)=O)CC4)CC3)c3ncnc(N)c23)ccc1NC(=O)c1cc2ccccc2n1C + Cc1cc(Nc2cc(N3CCN(C)CC3)nc(Sc3ccc(NC(=O)C4CC4)cc3)n2)n[nH]1 [Tozasertib] (partner 0.1 µM)
Outline: as §1

Midostaurin + Lapatinib = compound: CO[C@@H]1[C@H](N(C)C(=O)c2ccccc2)C[C@H]2O[C@]1(C)n1c3ccccc3c3c4c(c5c6ccccc6n2c5c31)C(=O)NC4 [Midostaurin] + CS(=O)(=O)CCNCc1ccc(-c2ccc3ncnc(Nc4ccc(OCc5cccc(F)c5)c(Cl)c4)c3c2)o1 [Lapatinib] (partner 2 µM)
Outline: as §1

Cell Line | relative viability ([1]; first compound 0.0128 µM) | relative viability ([1]; first compound 0.04048 µM) | relative viability ([1]; first compound 0.128 µM) | relative viability ([1]; first compound 1.28 µM) | relative viability ([2]; first compound 0.0128 µM) | relative viability ([2]; first compound 0.04048 µM) | relative viability ([2]; first compound 0.128 µM) | relative viability ([2]; first compound 1.28 µM) | relative viability (Midostaurin + Olaparib; first compound 0.01 µM) | relative viability (Midostaurin + Olaparib; first compound 0.03162 µM) | relative viability (Midostaurin + Olaparib; first compound 0.1 µM) | relative viability (Midostaurin + Olaparib; first compound 0.3162 µM) | relative viability ([3]; first compound 0.0128 µM) | relative viability ([3]; first compound 0.04048 µM) | relative viability ([3]; first compound 0.128 µM) | relative viability ([3]; first compound 1.28 µM) | relative viability (Midostaurin + Lapatinib; first compound 0.01 µM) | relative viability (Midostaurin + Lapatinib; first compound 0.03162 µM) | relative viability (Midostaurin + Lapatinib; first compound 0.1 µM) | relative viability (Midostaurin + Lapatinib; first compound 0.3162 µM)
NCI-H2085 | 0.716 | 0.593 | 0.774 | 0.519 | 0.579 | 0.436 | 0.58 | 0.553 | 0.76 | 0.708 | 0.834 | 0.711 | 0.827 | 0.867 | 0.728 | 0.372 | 0.759 | 0.857 | 0.823 | 0.639
NCI-H2087 | 0.692 |  | 0.611 | 0.648 | 0.331 |  | 0.198 | 0.225 | 0.585 | 0.539 | 0.635 | 0.608 | 0.221 |  | 0.216 | 0.194 | 1.09 | 0.889 | 1.02 | 1.4
NCI-H2126 | 0.686 | 0.661 | 0.646 | 0.547 | 0.612 | 0.551 | 0.608 | 0.457 | 0.813 | 0.901 | 0.853 | 0.779 | 0.833 | 0.946 | 0.773 | 0.638 | 0.753 | 0.687 | 0.808 | 0.833
NCI-H2170 | 0.81 | 0.468 | 0.701 | 0.687 | 0.533 | 0.53 | 0.479 | 0.471 | 0.569 | 0.569 | 0.551 | 0.54 | 0.805 | 0.738 | 0.688 | 0.639 | 0.29 | 0.259 | 0.255 | 0.285
NCI-H2347 | 0.406 |  | 0.434 | 0.418 | 0.618 | 0.612 | 0.57 | 0.639 | 0.602 | 0.54 | 0.424 | 0.519 | 0.475 |  | 0.486 | 0.42 | 0.883 | 0.863 | 0.956 | 1.11
NCI-H2405 | 0.679 | 0.465 | 0.633 | 0.324 | 0.861 | 0.55 | 0.657 | 0.362 | 0.841 | 0.827 | 0.838 | 0.861 | 0.741 | 0.601 | 0.656 | 0.391 | 1.03 | 1.27 |  | 1.11
NCI-H3122 | 0.992 | 0.333 | 0.969 | 0.847 | 0.44 |  | 0.447 | 0.318 | 0.655 | 0.614 | 0.573 | 0.723 | 0.396 | 0.342 | 0.343 | 0.454 | 0.981 | 1.02 | 0.957 | 1.02
PC-3 [JPC-3] | 0.817 | 0.817 | 0.77 | 0.771 | 0.923 | 0.894 | 0.847 | 0.865 | 1.08 | 0.946 | 1.05 | 1.07 | 0.845 | 0.904 | 0.802 | 0.896 | 0.432 | 0.439 | 0.488 | 0.43
PC-14 | 0.896 | 1.07 | 0.798 | 0.913 | 0.203 | 0.186 | 0.216 | 0.326 | 0.328 | 0.281 | 0.206 | 0.199 | 0.562 | 0.688 | 0.559 | 0.636 | 0.345 | 0.289 | 0.302 | 0.266
RERF-LC-KJ | 0.634 | 0.536 | 0.581 | 0.569 | 0.716 | 0.759 | 0.737 | 0.845 | 0.819 | 0.839 | 0.814 | 0.716 | 0.51 | 0.522 | 0.401 | 0.424 | 0.881 | 0.91 | 0.907 | 0.922
SK-LU-1 | 0.4 | 0.291 | 0.284 | 0.206 | 0.577 | 0.557 | 0.559 | 0.481 | 0.471 | 0.439 | 0.443 | 0.346 | 0.346 | 0.352 | 0.273 | 0.226 | 0.806 | 1.17 | 0.823 | 0.572
SK-MES-1 | 0.685 | 0.665 | 0.583 | 0.562 | 0.384 | 0.368 | 0.454 | 0.355 | 0.634 | 0.595 | 0.66 | 0.473 | 0.906 | 1.01 | 0.827 | 0.936 | 0.455 | 0.439 | 0.395 | 0.491
SW 1573 | 0.68 | 0.691 | 0.624 | 0.466 | 0.527 | 0.446 | 0.491 | 0.366 | 0.503 | 0.547 | 0.403 | 0.249 | 0.201 | 0.108 | 0.175 | 0.148 | 1.2 | 1.17 | 1.06 | 1.07
